In brackets after ≈: the same amount, converted by molar mass.
How the values were obtained:
A. fumigatus ATCC 26430 [1] = assay: NCCLS M-38P turbidity method (0.2 mL micro broth dilution) antifungal susceptibility test; type: cell-based; conditions: Aspergillus fumigatus, ATCC26430, repeated tests, determination time 46 to 50 hours
Protocol: (§1) Aspergillus Fumigatus ATCC26430 was used.
A comparative example was carried out according to NCCLS M-38P (0.2 mL culture system micro broth dilution method).

A. fumigatus ATCC 26430 [2] = assay: Colorimetric microplate drug susceptibility test (WST-8 coloring reagent, sucrose YN broth, NaOH sensitizing solution); type: cell-based, Aspergillus Fumigatus; conditions: for Drug concentration at or above which almost no color was exhibited visually: visual reading
Protocol: as §1
The drug solutions so prepared were pipetted into a plate at 0.02 mL/well and dried to a solid under reduced pressure for 24 hours. A coloring reagent (containing 0.7 mmol/L WST-8, 0.0035 mmol/L 1-methoxy PMS, 0.5 mmol/L potassium ferricyanide, and 0.5 mmol/L of potassium ferrocyanide) was pipetted into each of the wells at 0.02 mL/well and they were again dried to a solid under reduced pressure for 24 hours.
6.7 g of YN Base (manufactured by Difco) and 20 g of sucrose were dissolved in about 900 mL of purified water, and the pH was adjusted to 7.0 with a 1N aqueous solution of sodium hydroxide. The solution was made up to 1000 mL with purified water and then filter sterilized using a 0.2 μm filter.
A tester strain was cultured using Sabouraud Dextrose Agar (manufactured by OXOID) at 35° C. for 7 days. 2 mL of sterile physiological saline containing 0.1% Tween 80 was added dropwise onto the culture medium so as to float spores. The above-mentioned physiological saline that had been added dropwise onto the culture medium was recovered and allowed to stand for 3 to 5 minutes, and after removing the precipitate it was mixed using a Vortex mixer to give a spore suspension. Dilution was carried out so that the absorbance at 530 nm was 0.09 to 0.11. 0.1 mL of the spore suspension so prepared was taken using a micro pipette, added to 20 mL of sucrose YN broth, and stirred using a Vortex mixer to give an inoculum. 0.2 mL of the inoculum was pipetted into each of the wells of the microplate for the test described in B, the plate was covered, and culturing was carried out at 35° C.±1° C. for 24 hours. As a blank, sucrose YN broth was added instead of the inoculum.
After 24 hours 0.02 mL of a 1.5 mol/L aqueous solution of sodium hydroxide was added to each well, and 5 minutes after the addition the absorbance at 630 nm was measured.
2. For ITCZ, the 80% inhibitory concentration (IC80) was determined.

A. fumigatus ATCC 26430 [3] = conditions: reference values of NCCLS M38-P; cited from earlier work

Row | SMILES | MIC (A. fumigatus ATCC 26430 [1]) [µg/mL] | Drug concentration at or below which absorbance at 630 nm increased (FIG. 2) (A. fumigatus ATCC 26430 [2]; 24 hours culture, absorbance at 630 nm) [µg/mL] | Drug concentration at or above which almost no color was exhibited visually (A. fumigatus ATCC 26430 [2]; 24 hours culture) [µg/mL] | MIC (A. fumigatus ATCC 26430 [2]; Aspergillus fumigatus, ATCC26430, 24 h) [µg/mL] | Allowable range (MIC reference values described in NCCLS M38-P) (A. fumigatus ATCC 26430 [3]) [µg/mL]
1 | CCC(C)n1ncn(-c2ccc(N3CCN(c4ccc(OCC5COC(Cn6cncn6)(c6ccc(Cl)cc6Cl)O5)cc4)CC3)cc2)c1=O (stereo not drawn) [ITCZ, Itraconazole] | 0.12 to 0.25 (≈ 0.17 to 0.354 µM) | ≤ 0.06 | ≥ 0.12 | 0.12 to 0.25 | –
2 | C[C@@H]1[C@H](O)[C@@H](C)/C=C/C=C/C=C/C=C/C=C/C=C/C=C/[C@H](O[C@@H]2O[C@H](C)[C@@H](O)[C@H](N)[C@@H]2O)C[C@@H]2O[C@](O)(C[C@@H](O)C[C@@H](O)[C@H](O)CC[C@@H](O)C[C@@H](O)CC(=O)O[C@H]1C)C[C@H](O)[C@H]2C(=O)O [AMPH, Amphotericin B] | – | – | ≥ 0.5 | – | 0.5 to 2.0
